Test [1] concerns protein kinase A activity associated with RXRα (Homo sapiens). Put plainly: PKA activity in S293 cells overexpressing the catalytic subunit of PKA. It counts as cell-based. The source says:
Sample 1: No ligand; immunoprecipitation with beads only. […] Sample 3: No ligand; immunoprecipitation with anti-FLAG antibody. […] Sample 5: No ligand; immunoprecipitation with beads only. […] Sample 7: No ligand; immunoprecipitation with anti-PKA antibody.
S293 cells (HEK293 cells stably overexpressing RXRα) were transfected with the pFC-PKA expression vector encoding the catalytic subunit of protein kinase A and with Flag-tagged PH-RXRα essentially as described above. This commercially available expression vector expresses the catalytic subunit of murine protein kinase A under control of the CMV promoter (Stratagene; San Diego, Calif.).

Test [2] has as its target association between RXRα and PKA (Homo sapiens, UniProt P19793). Put plainly: Co-immunoprecipitation of RXRα and catalytic subunit of PKA. In kind it is cell-based. Particulars: cells overexpressing PKA catalytic subunit, 10^-7 M.
Experimental: Left panel: Cells were immunoprecipitated with anti-FLAG antibody, and the immunoprecipitates analyzed by SDS-PAGE and blotting with anti-PKA antibody. Right panel: Cells were immunoprecipitated with anti-PKA antibody, and the immunoprecipitates analyzed by SDS-PAGE and blotting with anti-FLAG antibody. […] PKA I and PKC I indicate inhibitors of PKA and PKC, respectively.
Immunoprecipitations with anti-Flag antibody were performed as described above. Immunoprecipitations with anti-PKA antibody (Transduction Laboratories; Lexington, Kentucky) were performed according to manufacturer's protocol. Western blotting with anti-PKA antibody and anti-Flag antibody also were performed according to manufacturer's protocol.
For a further test, the target named is T1, RXRα (Homo sapiens, UniProt P19793).
T1 sequence (P19793 1-462): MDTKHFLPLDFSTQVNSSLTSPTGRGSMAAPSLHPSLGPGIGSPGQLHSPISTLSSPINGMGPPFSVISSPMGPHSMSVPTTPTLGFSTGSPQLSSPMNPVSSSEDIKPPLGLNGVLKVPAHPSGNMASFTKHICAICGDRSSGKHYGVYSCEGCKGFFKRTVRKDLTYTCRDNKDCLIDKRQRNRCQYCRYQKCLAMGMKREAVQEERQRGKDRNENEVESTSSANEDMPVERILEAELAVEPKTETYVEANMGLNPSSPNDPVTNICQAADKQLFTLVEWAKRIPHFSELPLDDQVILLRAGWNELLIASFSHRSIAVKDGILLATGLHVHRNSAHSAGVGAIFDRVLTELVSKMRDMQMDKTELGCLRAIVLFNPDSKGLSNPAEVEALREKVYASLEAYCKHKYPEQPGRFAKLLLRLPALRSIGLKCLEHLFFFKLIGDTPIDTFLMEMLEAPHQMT
The test can be described thus: In vivo metabolic labeling with [32P]orthophosphate of Flag-RXR transfected HEK 293 cells. It counts as cell-based. Conditions: [32P]orthophosphate labeling, ligand 10 minutes. Set-up: expressed in transfected cells; host or cells: HEK 293. From the text:
(A) AGN194204-dependent protein kinase activity in Flag-RXR immunocomplexes, which were immunoprecipitated from transfected cells using antibody against the “Flag” epitope tag fused to the RXR receptor. […] Total cell lysates were immunoprecipitated with anti-Flag antibody (M2). Aliquots of the immunocomplexes were used for the in vitro kinase reaction with [γ-^32P]ATP and separated on SDS-PAGE. Phosphorylated proteins were detected by autoradiography (top panel). Additional aliquots of the immunocomplexes were subjected to immunoblotting with polyclonal anti-RXR antisera (D20; bottom panel). (B) Phosphoamino acid analysis. Flag-RXR and the 160-kDa protein were phosphorylated in vitro and separated on SDS-PAGE as described above, then transferred onto PVDF membrane, detected by autoradiography, and cut out for hydrolysis with acid (6 N HCl). The phosphorylated amino acids and standards (P-Ser, P-Thr, and P-Tyr) were separated by thin-layer chromatography. Positions of the standards P-Ser, P-Thr, and P-Tyr were visualized by ninhydrin staining and are indicated by arrows. (C) In vivo metabolic labeling of transfected HEK 293 cells. […] Cells were washed with phosphate-free medium and starved for 90 minutes before incubation with [^32P]orthophosphate for another 4 hours. […] Phosphorylated proteins were detected by autoradiography. […]

The test system of test [3] is MAP kinase (MAPK or ERK1/2). The test can be described thus: MAP kinase phosphorylation in cells treated with RXR agonist (anti-phospho-MAPK immunoblot). In kind it is cell-based. On the procedure: Cells were lysed directly with 1×SDS sample buffer and the cell lysates were separated by SDS-PAGE and immunoblotted with anti-phospho-MAPK. […] Differentiated 3T3 adipocytes were starved, stimulated, and manipulated as described above. […] Detection of MAP kinase phosphorylation was performed as described above with anti-phospho-MAPK from Promega.
MAP kinase (MAPK or ERK1/2) is activated by phosphorylation on Thr and Tyr residues of a TEY motif by the dual-specific MAP kinase kinase (MEK). […] As further shown in FIG. 3C, the response was dose-dependent (0.01-100 nM), with maximal stimulation at 0.1 nM.
On the technique in general: Immunoblotting shows a protein as a band on a membrane.

The target of test [4] is T2, RXRα associated protein kinase (Homo sapiens, UniProt P19793).
T2 sequence (P19793 1-462): T1 sequence (P19793 1-462)
The test can be described thus: In vitro phosphorylation of exogenous protein substrates by RXR-associated kinase. In kind it is cell-based. Conditions: Flag-RXR transfected cells, 10^-7 M. The method, then:
Total cell lysates were immunoprecipitated with anti-FLAG antibody (M2). Immunoprecipitated material was used for in vitro kinas reaction with γ-^32P-ATP alone or with addition of exogenous mixed histones or myelin basic protein (MBP). The phosphorylated proteins were separated on SDS-PAGE and detected by autoradiography.
After terminating the kinase reaction, the products were analyzed by SDS-PAGE.
Kinase reactions with purified proteins were performed essentially as described above for synthetic peptide substrates. Briefly, immunoprecipitated complexes were resuspended in kinase assay buffer with 2 μg myelin basic protein (Sigma) or histone-M (Roche), and kinase reactions initiated by addition of 50 μM [γ-^32P]ATP (10 μCi). The reaction mixtures were then incubated at 25° C. with occasional shaking for 20 minutes, and terminated by addition of sample buffer. SDS-PAGE analysis and autoradiography were used to visualize the results.

The target of test [5] is T3, RXRα phosphorylation by protein kinase A (Homo sapiens, UniProt P19793).
T3 construct: host or cells: HEK293
T3 sequence (P19793 1-462): T1 sequence (P19793 1-462)
Put plainly: Phosphorylation of immunoprecipitated RXRα by purified PKA. It counts as biochemical. Conditions: cells incubated with 10^-7 M ligand. On the procedure: Left panel: Cells were immunoprecipitated with anti-FLAG antibody, and the immunoprecipitates analyzed by SDS-PAGE and blotting with anti-PKA antibody. Right panel: Cells were immunoprecipitated with anti-PKA antibody, and the immunoprecipitates analyzed by SDS-PAGE and blotting with anti-FLAG antibody. B. Phosphorylation of RXRα by PKA. […] PKA I and PKC I indicate inhibitors of PKA and PKC, respectively.
RXRα-containing immunoprecipitates prepared with anti-Flag antibody were incubated with purified catalytically active PKA (Upstate Biotechnology) and […]; in addition, protein kinase A inhibitor or protein kinase C inhibitor was added to some reactions as indicated. The kinase reaction products were analyzed by SDS-PAGE.

The record followed here is patent US20050130232A1, “Methods of screening for compounds that modulate hormone receptor activity” (Allergan, Inc., priority 2001, published 2005).

Some results are limits rather than exact numbers.

Take `CC(/C=C/[C@@H]1C[C@]1(C)c1ccc2c(c1)C(C)(C)CCC2(C)C)=C\C(=O)O` [AGN194204]: the “protein kinase A activity in immunoprecipitates” value in test [1] (immunoprecipitation with anti-Flag antibody) was “dramatic increase”. In addition, in test [1] (immunoprecipitation with anti-PKA antibody), the “protein kinase A activity in immunoprecipitates” value was “only a marginal ligand-dependent increase”. In addition, in test [2], the “amount of protein kinase A associated with RXRα” value was “did not increase the amount of protein kinase A associated with receptor”. Also, the “in vivo phosphorylation of RXRα” value on RXRα is “stimulated”. Moreover, in test [3], the “duration of increased MAP kinase phosphorylation” value is “about 20 minutes”. The “phosphorylation of MAP kinase” value in test [3] (3T3-L1 fibroblasts) is given as “increased phosphorylation of MAP kinase”. In addition, in test [3] (3T3-L1 fibroblasts, 5 minutes), the “concentration of maximal stimulation of MAP kinase phosphorylation” value was 0.1 nM and the “dose-dependent range of MAP kinase response” value is 10 to 100000 pM. For the same compound, the “time to increased MAP kinase phosphorylation” value in test [3] (after treatment) was at most 5 min. Also, the “phosphorylation of MAP kinase” value in test [3] (differentiated 3T3 adipocytes) is recorded as “increased phosphorylation of MAP kinase”. In test [4], the “in vitro phosphorylation of histone-M” value is listed as “increased” and the “in vitro phosphorylation of myelin basic protein (MBP)” value is listed as “dramatically increased”. Moreover, in test [5], the “extent of RXRα phosphorylation by purified PKA” value is “increased”.
